This note sets out measurements from publication PMC12951562, “SH2scan: Mapping SH2 Domain-Ligand Binding Selectivity for Inhibitors and Degraders” (Journal of Medicinal Chemistry, 2026).

Non-standard residues stand in square brackets, D forms with d. Residues, ends and D or L forms follow the SMILES beside them. pY = N[C@@H](Cc1ccc(OP(=O)(O)O)cc1)C(=O)O

Common to all, as to assay: biochemical
Common to all, as to assay type: binding

One assay concerns the target T1, DAPP1 (Homo sapiens, UniProt Q9UN19).
T1 construct: the DNA-tagged SH2 domain concentrations used in this study were <0.1 nM; made in house; host or cells: HEK293 (transient transfection; unpurified extract)
T1 sequence (Q9UN19 35-129 limits assumed): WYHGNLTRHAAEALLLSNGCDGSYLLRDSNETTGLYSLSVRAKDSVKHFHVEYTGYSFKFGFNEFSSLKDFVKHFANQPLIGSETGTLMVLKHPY
To be noted: primary screen, 10 μM; for remaining activity at 10 µM: read-out: percent of DMSO vehicle control.

For the next assay, the target named is T2, FER (Homo sapiens, UniProt P16591).
T2 construct: the DNA-tagged SH2 domain concentrations used in this study were <0.1 nM; made in house; host or cells: HEK293 (transient transfection; unpurified extract)
The following applies: for Kd: dose-response, read-out: KD; for remaining activity at 10 µM: read-out: percent of DMSO vehicle control.

For the next assay, the target named is T3, GRAP (Homo sapiens, UniProt Q13588).
T3 construct: the DNA-tagged SH2 domain concentrations used in this study were <0.1 nM; made in house; host or cells: HEK293 (transient transfection; unpurified extract)
To be noted: primary screen, 10 μM; for remaining activity at 10 µM: read-out: percent of DMSO vehicle control.

The target in another assay is T4, LCK (Homo sapiens, UniProt P06239).
T4 construct: the DNA-tagged SH2 domain concentrations used in this study were <0.1 nM; made in house; host or cells: HEK293 (transient transfection, unpurified extract)
To be noted: primary screen, 10 μM; for remaining activity at 10 µM: read-out: percent of DMSO vehicle control.

The next assay deals with T5, RASA1(SH2dom.C-term.) (Homo sapiens, UniProt P20936).
T5 construct: SH2dom.C-term. denotes SH2 domain closest to C-terminus of protein; made in house; host or cells: HEK293 (transient transfection, unpurified extract)
T5 sequence (P20936 351-441 limits assumed): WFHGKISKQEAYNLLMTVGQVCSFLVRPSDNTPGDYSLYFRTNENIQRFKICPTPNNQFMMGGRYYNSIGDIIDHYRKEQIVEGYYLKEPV
To be noted: primary screen, 10 μM; for remaining activity at 10 µM: read-out: percent of DMSO vehicle control.

Another assay deals with T6, SH2B (SH2B1) (Homo sapiens, UniProt Q9NRF2).
T6 construct: made in house; host or cells: HEK293 (transient transfection), unpurified extract
To be noted: primary screen, 10 μM; for remaining activity at 10 µM: read-out: percent of DMSO vehicle control.

In the next assay the target is T7, SHC3 (Homo sapiens, UniProt Q92529).
T7 construct: made in house; host or cells: HEK293 (transient transfection), unpurified extract
T7 sequence (Q92529 1-594): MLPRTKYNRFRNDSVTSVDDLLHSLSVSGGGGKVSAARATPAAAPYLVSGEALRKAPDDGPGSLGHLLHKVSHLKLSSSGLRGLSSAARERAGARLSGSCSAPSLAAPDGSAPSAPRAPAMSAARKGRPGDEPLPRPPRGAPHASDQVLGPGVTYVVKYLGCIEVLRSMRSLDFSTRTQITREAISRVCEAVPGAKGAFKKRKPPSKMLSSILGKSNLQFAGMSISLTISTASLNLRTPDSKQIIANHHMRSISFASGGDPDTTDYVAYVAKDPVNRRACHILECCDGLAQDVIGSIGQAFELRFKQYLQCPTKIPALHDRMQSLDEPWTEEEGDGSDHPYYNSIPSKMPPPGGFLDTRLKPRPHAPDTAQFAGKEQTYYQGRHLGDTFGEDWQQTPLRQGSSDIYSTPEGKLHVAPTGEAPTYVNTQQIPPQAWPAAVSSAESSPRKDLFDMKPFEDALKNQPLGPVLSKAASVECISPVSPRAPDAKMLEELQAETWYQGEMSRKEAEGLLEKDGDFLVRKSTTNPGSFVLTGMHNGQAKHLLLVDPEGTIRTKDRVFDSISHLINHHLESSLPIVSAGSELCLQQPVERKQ
The following applies: primary screen, 10 μM; for remaining activity at 10 µM: read-out: percent of DMSO vehicle control.

A further assay addresses T8, SLAP2 (Homo sapiens, UniProt Q9H6Q3).
T8 construct: made in house; host or cells: HEK293 (transient transfection), unpurified extract
T8 sequence (Q9H6Q3 1-261): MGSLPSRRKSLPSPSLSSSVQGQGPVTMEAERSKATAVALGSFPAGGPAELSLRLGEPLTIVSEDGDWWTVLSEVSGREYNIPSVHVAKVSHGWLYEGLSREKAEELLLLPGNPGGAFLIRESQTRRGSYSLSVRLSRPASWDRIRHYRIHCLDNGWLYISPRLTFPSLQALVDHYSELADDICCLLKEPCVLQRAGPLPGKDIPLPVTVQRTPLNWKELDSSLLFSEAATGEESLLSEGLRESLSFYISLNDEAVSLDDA
To be noted: primary screen, 10 μM; for remaining activity at 10 µM: read-out: percent of DMSO vehicle control.

The next assay has as its target T9, STAP2 (Homo sapiens, UniProt Q9UGK3).
T9 construct: made in house; host or cells: HEK293 (transient transfection), unpurified extract
T9 sequence (Q9UGK3 1-403): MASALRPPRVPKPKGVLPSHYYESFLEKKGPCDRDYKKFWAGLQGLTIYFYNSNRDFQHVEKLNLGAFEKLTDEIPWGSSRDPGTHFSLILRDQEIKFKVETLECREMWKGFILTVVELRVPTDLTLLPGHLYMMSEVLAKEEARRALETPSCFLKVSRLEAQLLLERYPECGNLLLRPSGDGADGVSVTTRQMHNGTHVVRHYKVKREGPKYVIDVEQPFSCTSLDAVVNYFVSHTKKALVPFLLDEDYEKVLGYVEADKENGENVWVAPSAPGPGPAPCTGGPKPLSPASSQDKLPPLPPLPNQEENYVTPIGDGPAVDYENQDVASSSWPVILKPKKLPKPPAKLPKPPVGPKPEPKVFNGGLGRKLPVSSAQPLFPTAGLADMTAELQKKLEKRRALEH
To be noted: primary screen, 10 μM; for remaining activity at 10 µM: read-out: percent of DMSO vehicle control.

The target in another assay is T10, STAT4 (Homo sapiens, UniProt Q14765).
T10 construct: made in house; host or cells: HEK293 (transient transfection), unpurified extract
T10 sequence (Q14765 1-748): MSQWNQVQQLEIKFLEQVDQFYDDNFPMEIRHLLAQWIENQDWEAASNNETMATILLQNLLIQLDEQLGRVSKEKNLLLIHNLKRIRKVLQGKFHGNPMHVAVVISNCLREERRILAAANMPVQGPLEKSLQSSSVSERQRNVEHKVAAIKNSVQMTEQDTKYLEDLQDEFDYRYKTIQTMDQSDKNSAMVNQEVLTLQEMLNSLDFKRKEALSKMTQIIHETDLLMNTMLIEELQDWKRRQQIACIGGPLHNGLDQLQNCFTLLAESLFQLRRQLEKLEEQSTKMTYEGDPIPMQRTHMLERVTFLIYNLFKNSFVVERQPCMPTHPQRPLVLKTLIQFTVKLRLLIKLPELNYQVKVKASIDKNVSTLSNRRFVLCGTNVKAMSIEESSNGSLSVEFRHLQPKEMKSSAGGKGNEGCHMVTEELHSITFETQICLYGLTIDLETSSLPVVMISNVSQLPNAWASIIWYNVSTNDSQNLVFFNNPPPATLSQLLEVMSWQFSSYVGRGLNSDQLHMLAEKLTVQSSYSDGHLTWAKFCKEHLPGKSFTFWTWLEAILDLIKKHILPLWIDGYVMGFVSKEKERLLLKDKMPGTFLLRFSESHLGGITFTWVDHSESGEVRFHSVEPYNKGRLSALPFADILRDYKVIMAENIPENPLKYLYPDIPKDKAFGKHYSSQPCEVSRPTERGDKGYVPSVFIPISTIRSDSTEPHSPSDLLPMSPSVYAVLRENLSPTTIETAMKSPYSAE
The following applies: for percent of DMSO vehicle control: primary screen, 10 μM.

The next assay deals with T11, TNS1 (Homo sapiens, UniProt Q9HBL0).
T11 construct: made in house; host or cells: HEK293 (transient transfection), unpurified extract
The following applies: primary screen, 10 μM; for remaining activity at 10 µM: read-out: percent of DMSO vehicle control.

T2 sequence (P16591 460-550 limits assumed): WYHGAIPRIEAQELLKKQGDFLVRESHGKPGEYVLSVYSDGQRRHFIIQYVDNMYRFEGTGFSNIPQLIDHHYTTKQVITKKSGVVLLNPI
T3 sequence (Q13588 60-154 limits assumed): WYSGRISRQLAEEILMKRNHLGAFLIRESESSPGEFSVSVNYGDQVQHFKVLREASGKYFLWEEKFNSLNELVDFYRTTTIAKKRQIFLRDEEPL
T4 sequence (P06239 127-224 limits assumed): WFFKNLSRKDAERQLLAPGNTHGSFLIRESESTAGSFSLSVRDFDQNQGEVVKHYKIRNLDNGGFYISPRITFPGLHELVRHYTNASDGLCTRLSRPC
T11 sequence (Q9HBL0 whole entry): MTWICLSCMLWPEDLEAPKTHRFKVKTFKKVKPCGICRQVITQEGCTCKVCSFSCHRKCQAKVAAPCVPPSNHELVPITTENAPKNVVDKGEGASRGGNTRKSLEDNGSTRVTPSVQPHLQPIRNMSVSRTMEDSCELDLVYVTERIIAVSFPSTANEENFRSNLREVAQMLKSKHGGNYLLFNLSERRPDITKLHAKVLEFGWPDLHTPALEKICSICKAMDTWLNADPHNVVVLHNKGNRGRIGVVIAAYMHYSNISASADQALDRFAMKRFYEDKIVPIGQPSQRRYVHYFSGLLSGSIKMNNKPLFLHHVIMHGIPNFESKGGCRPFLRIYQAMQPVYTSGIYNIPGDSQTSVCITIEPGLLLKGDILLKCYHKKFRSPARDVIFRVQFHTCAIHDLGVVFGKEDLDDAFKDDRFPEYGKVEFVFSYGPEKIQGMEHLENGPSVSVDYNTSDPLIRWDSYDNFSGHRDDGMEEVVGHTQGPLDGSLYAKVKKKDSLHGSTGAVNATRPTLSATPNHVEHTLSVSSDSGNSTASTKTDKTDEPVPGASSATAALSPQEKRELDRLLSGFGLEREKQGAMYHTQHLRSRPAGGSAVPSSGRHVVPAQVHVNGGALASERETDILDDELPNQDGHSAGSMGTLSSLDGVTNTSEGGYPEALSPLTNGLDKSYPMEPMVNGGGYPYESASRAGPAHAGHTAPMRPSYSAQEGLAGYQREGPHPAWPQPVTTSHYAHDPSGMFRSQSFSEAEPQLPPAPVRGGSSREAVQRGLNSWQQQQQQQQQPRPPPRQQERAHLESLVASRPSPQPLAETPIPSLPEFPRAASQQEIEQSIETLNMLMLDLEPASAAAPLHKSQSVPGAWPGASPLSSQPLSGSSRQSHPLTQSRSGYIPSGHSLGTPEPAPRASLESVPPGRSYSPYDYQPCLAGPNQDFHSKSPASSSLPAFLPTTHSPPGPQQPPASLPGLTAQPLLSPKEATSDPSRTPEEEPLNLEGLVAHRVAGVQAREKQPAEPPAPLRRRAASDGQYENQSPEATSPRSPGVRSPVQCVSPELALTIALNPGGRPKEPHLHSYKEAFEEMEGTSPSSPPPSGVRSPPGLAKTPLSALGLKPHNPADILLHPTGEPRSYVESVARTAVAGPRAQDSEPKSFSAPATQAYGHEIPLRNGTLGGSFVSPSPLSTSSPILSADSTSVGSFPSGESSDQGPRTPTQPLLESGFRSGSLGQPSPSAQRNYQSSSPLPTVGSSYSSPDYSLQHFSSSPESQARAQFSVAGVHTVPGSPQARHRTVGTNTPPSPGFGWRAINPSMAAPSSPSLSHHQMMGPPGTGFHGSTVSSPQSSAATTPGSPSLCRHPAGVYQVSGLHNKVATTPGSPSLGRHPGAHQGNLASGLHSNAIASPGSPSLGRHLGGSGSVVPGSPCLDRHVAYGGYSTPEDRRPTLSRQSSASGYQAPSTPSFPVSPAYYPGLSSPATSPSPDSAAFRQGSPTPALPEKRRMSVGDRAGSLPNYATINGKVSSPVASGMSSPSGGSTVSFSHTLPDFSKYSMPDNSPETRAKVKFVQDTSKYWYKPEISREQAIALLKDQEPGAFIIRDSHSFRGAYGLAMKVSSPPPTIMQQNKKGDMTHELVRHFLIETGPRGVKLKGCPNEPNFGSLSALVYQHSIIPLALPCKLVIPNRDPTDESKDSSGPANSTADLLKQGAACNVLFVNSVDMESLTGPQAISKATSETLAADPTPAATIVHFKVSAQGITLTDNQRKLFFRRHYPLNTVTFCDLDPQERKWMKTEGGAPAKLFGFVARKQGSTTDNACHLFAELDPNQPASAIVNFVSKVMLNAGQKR

For `CC[C@H](C)[C@H](NC(=O)[C@H](CCC(=O)O)NC(=O)[C@H](CCC(=O)O)NC(=O)[C@H](Cc1ccc(OP(=O)(O)O)cc1)NC(C)=O)C(=O)N[C@@H](CCC(=O)O)C(N)=O` [Ac-pYEEIE-NH2] (Ac-[pY]EEIE-NH2), the “percent of DMSO vehicle control” value at DAPP1 came to 134.5%; at FER (primary screen, 10 μM) it was 37.4%; on GRAP, 112.9%; on LCK it was 44.2±3.3%; on RASA1(SH2dom.C-term.) it was 119.3%; on SH2B (SH2B1), 126.6%. In addition, the “percent of DMSO vehicle control” value on SHC3 is recorded as 98.9±6.8%; on SLAP2, 202.8%; on STAP2 it was 80.1±5.7%; at STAT4, 106.6%; at TNS1, 161.1%.

The term Kd denotes the concentration at which binding is half-saturated. On to `O=C(COc1ccc2cc(C(=O)Nc3ccccc3)ccc2c1)NCc1ccc(OP(=O)(O)O)c(OP(=O)(O)O)c1` [Stafib-1], for which the remaining activity at 10 µM turned out to be 100% on DAPP1; 10.8% at FER (primary screen, 10 μM); 76.2 ± 27% on GRAP; 97.4 ± 7.6% on LCK; 97 ± 11.7% on RASA1(SH2dom.C-term.); 92.7 ± 14.3% on SH2B (SH2B1). Besides, the remaining activity at 10 µM at SHC3 was 87 ± 14.4%; on SLAP2, 90.4 ± 6.1%; on STAP2 it was 78.7 ± 36.1%; at TNS1 it was 132%. Moreover, the Kd at FER was determined as 1900 nM. For the same compound, at STAT4, the “percent of DMSO vehicle control” value worked out at 57.6±15.3%.

Take `CC(C)(C)[C@H](NC(=O)/C=C/c1ccc(OP(=O)(O)O)cc1)C(=O)N1CCC[C@H]1C(=O)N(c1ccccc1)c1ccc(I)cc1` [STAT6-IN-3]: the remaining activity at 10 µM on DAPP1 came out at 58.9 ± 43.2%; on FER (primary screen, 10 μM), 10.7 ± 34%; on GRAP, 73.5 ± 23.6%; at LCK, 72 ± 20.4%; on RASA1(SH2dom.C-term.) it was 123 ± 14.3%; at SH2B (SH2B1), 78.1 ± 4.8%. The remaining activity at 10 µM was found to be 50.6 ± 6.4% at SHC3, 92.1 ± 16.6% on SLAP2, 56.9 ± 15.1% at STAP2 and 88.4 ± 24.5% at TNS1. Further, the Kd on FER is 8000 ± 8700 nM; at STAT4 (dose-response, read-out: KD), 520 ± 270 nM. Also, on STAT4, the “percent of DMSO vehicle control” value was 0.2±0.3%.
